# In US12472231B2 (priority 2020, dated 2025):
# Where a SMILES comes first, the peptide text is derived from it.
# System: A(H1N1)pdm09 virus
# Experiment: microbe, parasite or virus in culture
# Type: cell-based
Structure (SMILES),inhibition of P10 virus replication (2000 nM),inhibition of P15 virus replication (8000 nM),"IC50 (Influenza A virus, H1N1, MDCK, 24 h, read-out: IC50 against parent A(H1N1)pdm09 virus (P0)) [nM]",emergence of drug-resistant virus after serial passages in presence of the agent,inhibition of P30 virus replication,inhibition of P40 virus replication
CC[C@H](C)[C@H](NC(=O)[C@H](C)NC(=O)CNC(=O)[C@@H](N)CC(N)=O)C(=O)N[C@@H](CS)C(=O)N[C@@H](Cc1c[nH]c2ccccc12)C(=O)NCC(=O)N1CCC[C@H]1C(=O)N[C@@H](CS)C(=O)N1CCC[C@H]1C(=O)N[C@H](C(=O)N[C@@H](C)C(=O)N[C@@H](Cc1ccccc1)C(=O)N[C@@H](CCCNC(=N)N)C(=O)N[C@@H](CCC(N)=O)C(=O)N[C@H](C(=O)NCC(=O)N[C@@H](CC(N)=O)C(=O)N[C@@H](CS)C(=O)NCC(=O)N[C@@H](CCCNC(=N)N)C(=O)N[C@@H](Cc1ccccc1)C(=O)N[C@@H](CCCNC(=N)N)C(=O)N[C@H](C(=O)N[C@@H](CCCNC(=N)N)C(=O)N[C@@H](CS)C(=O)N[C@@H](CS)C(=O)N[C@@H](CCCNC(=N)N)C(=O)N[C@H](C(=O)N[C@@H](CCCNC(=N)N)C(=O)O)[C@@H](C)CC)C(C)C)[C@@H](C)CC)[C@@H](C)O [P9R] (H-NGAICWGPCPTAFRQIGNCGRFRVRCCRIR-OH),,,,No obvious drug-resistant virus,could efficiently inhibit,could efficiently inhibit
